The values below come from paper PMC5863483, “Low HLA binding of diabetes-associated CD8+ T-cell epitopes is increased by post translational modifications” (BMC Immunology, 2018).

*1 amine or outer side, *2 acyl side, *3 side chain or, on linkers, in order; H or OH if unused. Where a SMILES comes first, the peptide text is derived from it. Where no end group is shown, it is not given here. [ ]: non-standard residue; d: D form. γGlu = O=C(O)[C@H](CCC(=O)[*:2])N[*:1]; βAsp = O=C(O)[C@H](CC(=O)[*:2])N[*:1]; Cya = N[C@@H](CS(=O)(=O)O)C(=O)O; Cit = NC(=O)NCCC[C@H](N)C(=O)O Some results are limits rather than exact numbers.

The target in one assay is HLA-A*02:01 (Homo sapiens, UniProt P04439, D140Y/D185E/D98H/E176V/E277Q/G131W/G231S/I119V/I121R/I166T/I218V/L300P/L318F/N151K/N90K/P208A/P217A/Q86G/Q94H/R138H/R169H/T345S). The experiment in a line: HLA-peptide competition binding assay, A*02:01.
Conditions: not given
The molecule LLHVHHSCPL [reference compound] registered an IC50 of 7840 nM.
Consider MALWMRLLPL, for which the IC50 was found to be 1260 nM.

The same assay, now with this note: post-translationally modified insulin peptide; competition binding assay; a dash indicates IC50 >40,000 nM; read-out: A*02:01 binding (IC50 nM) Modified.
`C[C@H](NC(=O)[C@H](CCC(=O)O)NC(=O)[C@H](CCCNC(N)=O)NC(=O)[C@H](CCCNC(N)=O)NC(=O)[C@@H](NC(=O)[C@H](CCCCN)NC(=O)[C@@H]1CCCN1C(=O)[C@@H](N)[C@@H](C)O)[C@@H](C)O)C(=O)N[C@@H](CCC(=O)O)C(=O)O` (H-TPKT[Cit][Cit]EAE-OH; N-terminus and C-terminus assumed): the IC50 was over 40000 nM.
Same read-out and setting: the figure for VDEHLCGSH is over 40000 nM.
Consider `C[C@H](NC(=O)[C@H](CCC(=O)O)NC(=O)[C@H](CCCNC(N)=O)NC(=O)[C@H](CCCNC(N)=O)NC(=O)[C@@H](NC(=O)[C@H](CCCCN)NC(=O)[C@@H]1CCCN1C(=O)[C@@H](NC(=O)[C@@H](N)Cc1ccc(O)cc1)[C@@H](C)O)[C@@H](C)O)C(=O)N[C@@H](CCC(=O)O)C(=O)O` (H-YTPKT[Cit][Cit]EAE-OH; N-terminus and C-terminus assumed), for which the IC50 is over 40000 nM.
Same read-out and setting: next, `CC(C)C[C@H](NC(=O)[C@H](C)NC(=O)[C@H](CCC(=O)O)NC(=O)[C@@H](NC(=O)[C@H](CC(C)C)NC(=O)[C@H](Cc1c[nH]cn1)NC(=O)[C@H](CO)NC(=O)CNC(=O)[C@H](CS(=O)(=O)O)NC(=O)[C@@H](N)CC(C)C)C(C)C)C(=O)O` [LBGSHLVEAL] (H-L[Cya]GSHLVEAL-OH; N-terminus and C-terminus assumed): over 40000 nM; `CC(C)C[C@H](NC(=O)[C@H](Cc1c[nH]cn1)NC(=O)CC[C@H](NC(=O)C[C@H](NC(=O)[C@@H](NC(=O)[C@@H](N)Cc1ccccc1)C(C)C)C(=O)O)C(=O)O)C(=O)N[C@@H](CS)C(=O)NCC(=O)N[C@@H](CO)C(=O)O` [FVOZHLCGS] (H-FV[βAsp][γGlu]HLCGS-OH; N-terminus and C-terminus assumed): over 40000 nM.
Same read-out and setting: next, `C[C@@H](O)[C@H](NC(=O)[C@H](CCCCN)NC(=O)[C@@H]1CCCN1C(=O)[C@@H](NC(=O)[C@H](Cc1ccc(O)cc1)NC(=O)[C@@H](N)Cc1ccccc1)[C@@H](C)O)C(=O)N[C@@H](CCCNC(N)=O)C(=O)N[C@@H](CCCNC(N)=O)C(=O)N[C@@H](CCC(=O)O)C(=O)O` (H-FYTPKT[Cit][Cit]E-OH; N-terminus and C-terminus assumed): over 40000 nM; `CC[C@H](C)[C@H](NC(=O)CNC(=O)[C@H](CCCNC(N)=O)NC(=O)[C@H](CCCCN)NC(=O)[C@H](CCC(N)=O)NC(=O)[C@H](CC(C)C)NC(=O)[C@H](CO)NC(=O)CNC(=O)[C@@H](N)CCC(=O)O)C(=O)N[C@H](C(=O)O)C(C)C` (H-EGSLQK[Cit]GIV-OH; N-terminus and C-terminus assumed): over 40000 nM; VCGERGYFY: over 40000 nM.
Still for that read-out and setting: the figure for `CC(C)C[C@H](NC(=O)[C@H](CC(=O)O)NC(=O)[C@H](CCC(=O)O)NC(=O)[C@H](C)NC(=O)[C@H](CCC(=O)O)NC(=O)[C@H](CCCNC(N)=O)NC(=O)[C@H](CCCNC(N)=O)NC(=O)[C@@H](NC(=O)[C@H](CCCCN)NC(=O)[C@@H]1CCCN1)[C@@H](C)O)C(=O)O` (H-PKT[Cit][Cit]EAEDL-OH; N-terminus and C-terminus assumed) is over 40000 nM.
Take `CC(C)C[C@H](NC(=O)[C@H](Cc1c[nH]cn1)NC(=O)[C@H](CO)NC(=O)CNC(=O)[C@H](CS(=O)(=O)O)NC(=O)[C@H](CC(C)C)NC(=O)[C@@H](N)Cc1c[nH]cn1)C(=O)N[C@H](C(=O)N[C@@H](CCC(=O)O)C(=O)O)C(C)C` [HLBGSHLVE] (H-HL[Cya]GSHLVE-OH; N-terminus and C-terminus assumed): the IC50 is over 40000 nM.
Still for that read-out and setting: the figure for `CC(C)C[C@H](NC(=O)[C@H](Cc1c[nH]cn1)NC(=O)[C@H](CCC(N)=O)NC(=O)[C@H](CC(N)=O)NC(=O)[C@@H](N)C(C)C)C(=O)N[C@@H](CS(=O)(=O)O)C(=O)NCC(=O)N[C@@H](CO)C(=O)N[C@@H](Cc1c[nH]cn1)C(=O)O` [VNQHLBGSH] (H-VNQHL[Cya]GSH-OH; N-terminus and C-terminus assumed) is over 40000 nM.
Still for that read-out and setting: next, `CC(C)C[C@H](NC(=O)[C@H](Cc1c[nH]cn1)NC(=O)[C@H](CO)NC(=O)CNC(=O)[C@H](CS(=O)(=O)O)NC(=O)[C@H](CC(C)C)NC(=O)[C@H](Cc1c[nH]cn1)NC(=O)[C@H](CCC(N)=O)NC(=O)[C@H](CC(N)=O)NC(=O)[C@@H](N)C(C)C)C(=O)O` [VNQHLBGSHL] (H-VNQHL[Cya]GSHL-OH; N-terminus and C-terminus assumed): over 40000 nM; LVCGERGYF: over 40000 nM.

Staying with this assay, now noted: post-translationally modified insulin-derived peptide; radiolabeled ligand competition, purified MHC, two-day incubation, three or more independent experiments; read-out: A*02:01 binding, Modified.
Consider `CC(C)C[C@H](NC(=O)[C@H](C)NC(=O)[C@@H](N)CC(C)C)C(=O)N[C@@H](CCC(=O)O)C(=O)NCC(=O)N[C@@H](CO)C(=O)N[C@@H](CC(C)C)C(=O)N[C@@H](CCC(N)=O)C(=O)N[C@@H](CCCCN)C(=O)N[C@@H](CCCNC(N)=O)C(=O)O` (H-LALEGSLQK[Cit]-OH), for which the IC50 amounted to 16400 nM.

Staying with this assay, now noted: read-out: A*02:01 binding (IC50 nM) Modified.
Turning to `CSCC[C@H](NC(=O)[C@H](Cc1c[nH]c2ccccc12)NC(=O)[C@@H](N)CC(C)C)C(=O)N[C@@H](CCCNC(N)=O)C(=O)N[C@@H](CC(C)C)C(=O)N[C@@H](CC(C)C)C(=O)N1CCC[C@H]1C(=O)N[C@@H](CC(C)C)C(=O)N[C@@H](CC(C)C)C(=O)O` (H-LWM[Cit]LLPLL-OH), the IC50 is 148 nM.
The same measure, in the same setting: next, `CC(C)C[C@H](NC(=O)[C@H](CC(C)C)NC(=O)[C@H](C)NC(=O)[C@H](CC(C)C)NC(=O)[C@H](CC(C)C)NC(=O)[C@@H]1CCCN1C(=O)[C@H](CC(C)C)NC(=O)[C@H](CC(C)C)NC(=O)[C@@H](N)CCCNC(N)=O)C(=O)O` (H-[Cit]LLPLLALL-OH): 83 nM; `CC(C)C[C@H](NC(=O)[C@H](C)NC(=O)[C@H](CC(C)C)NC(=O)[C@H](CC(C)C)NC(=O)[C@@H]1CCCN1C(=O)[C@H](CC(C)C)NC(=O)[C@H](CC(C)C)NC(=O)[C@@H](N)CCCNC(N)=O)C(=O)N[C@@H](CC(C)C)C(=O)N[C@@H](C)C(=O)O` (H-[Cit]LLPLLALLA-OH): 70 nM.
In the case of `CC(C)C[C@H](NC(=O)[C@@H](N)Cc1ccc(O)cc1)C(=O)N[C@H](C(=O)N[C@@H](CS)C(=O)NCC(=O)N[C@@H](CCC(=O)O)C(=O)N[C@@H](CCCNC(N)=O)C(=O)NCC(=O)N[C@@H](Cc1ccccc1)C(=O)O)C(C)C` (H-YLVCGE[Cit]GF-OH), the IC50 amounted to 11400 nM.
On the same count and under the same terms, next, `CC[C@H](C)[C@H](NC(=O)CNC(=O)[C@H](CCCNC(N)=O)NC(=O)[C@H](CCCCN)NC(=O)[C@H](CCC(N)=O)NC(=O)[C@H](CC(C)C)NC(=O)[C@H](CO)NC(=O)CN)C(=O)N[C@H](C(=O)N[C@@H](CCC(=O)O)C(=O)O)C(C)C` [GSLQKUGIVE] (H-GSLQK[Cit]GIVE-OH): 34500 nM.
Consider `C[C@H](NC(=O)[C@H](CCC(=O)O)NC(=O)[C@H](CCCNC(N)=O)NC(=O)[C@H](CCCNC(N)=O)NC(=O)[C@@H](NC(=O)[C@H](CCCCN)NC(=O)[C@@H]1CCCN1C(=O)[C@@H](NC(=O)[C@@H](N)Cc1ccc(O)cc1)[C@@H](C)O)[C@@H](C)O)C(=O)O` (H-YTPKT[Cit][Cit]EA-OH), for which the IC50 came to 34700 nM.
Same read-out and setting: the figure for `CC(C)C[C@H](NC(=O)[C@H](CC(=O)O)NC(=O)[C@H](CCC(=O)O)NC(=O)[C@H](C)NC(=O)[C@H](CCC(=O)O)NC(=O)[C@H](CCCNC(N)=O)NC(=O)[C@H](CCCNC(N)=O)NC(=O)[C@@H](NC(=O)[C@@H](N)CCCCN)[C@@H](C)O)C(=O)N[C@@H](CCC(N)=O)C(=O)O` (H-KT[Cit][Cit]EAEDLQ-OH) is 22300 nM; for `CC(C)C[C@H](NC(=O)[C@@H](N)Cc1ccc(O)cc1)C(=O)N[C@H](C(=O)N[C@@H](CS(=O)(=O)O)C(=O)NCC(=O)N[C@@H](CCC(=O)O)C(=O)N[C@@H](CCCNC(=N)N)C(=O)NCC(=O)N[C@@H](Cc1ccc(O)cc1)C(=O)N[C@@H](Cc1ccc(O)cc1)C(=O)O)C(C)C` [YLVBGERGYY] (H-YLV[Cya]GERGYY-OH) it is 2420 nM.

Staying with this assay, now noted: read-out: A*02:01 binding (IC50 nM) WT.
EALYLVCGE: the IC50 was determined as 12000 nM.

The assay is the same for the next values; noted with them: read-out: IC50 nM, target assay A*02:01.
For the molecule YLLLRVLNI [reference compound], the IC50 amounted to 57 nM.
For LASEKVYAI [reference compound], the IC50 turned out to be 6930 nM.
Still for that read-out and setting: the figure for LMFWSPSHSCA [reference compound] is 143 nM.
Still for that read-out and setting: next, HLSYHWLLPL [reference compound]: 3820 nM; SVASLLPHV [reference compound]: 1760 nM; GIPPAPHGV [reference compound]: 219 nM.
Turning to GIPPAPRGV [reference compound], the IC50 was found to be 1230 nM.
The same measure, in the same setting: the figure for VLNSLASLL [reference compound] is 4970 nM; for QLARQQVHV [reference compound] it is over 40000 nM.
The same measure, in the same setting: the figure for NLLGRFELI [reference compound] is 764 nM; for ALWGPDPAAA [reference compound] it is 1010 nM; for HLSYHRLLPL [reference compound] it is 4260 nM.

The same assay, now with this note: unmodified (WT) insulin peptide; competition binding assay; a dash indicates IC50 >40,000 nM; read-out: A*02:01 binding (IC50 nM) WT.
Consider KTRREAEDL, for which the IC50 is over 40000 nM.
On the same count and under the same terms, next, LEGSLQKRG: over 40000 nM; QKRGIVEQC: over 40000 nM; LEGSLQKRGI: over 40000 nM.

The assay is the same for the next values; noted with them: unmodified (wild type) insulin-derived peptide; radiolabeled ligand competition, purified MHC, two-day incubation, three or more independent experiments; read-out: A*02:01 binding, WT.
For LALEGSLQKR, the IC50 is over 40000 nM.
On the same count and under the same terms, the figure for `CC(C)C[C@H](NC(=O)[C@H](C)N)C(=O)N[C@@H](Cc1ccc(O)cc1)C(=O)N[C@@H](CC(C)C)C(=O)N[C@H](C(=O)N[C@@H](CS)C(=O)NCC(=O)N[C@@H](CCC(=O)O)C(=O)N[C@@H](CCCNC(=N)N)C(=O)NCC(=O)O)C(C)C` is 8780 nM.
